Three compounds from the NIST ThermoML archive (doi:10.1021/je060253t) can be followed below.

Where “and” joins values, the source holds several entries; their conditions need not be identical. Identical values can stand only once. ± gives the expanded uncertainty stated by the source.

The conditions of the data set: 313.15 K; Liquid; Closed cell (Static) method.
On to `COC(C)(C)C` [2-methoxy-2-methylpropane], for which the vapor or sublimation pressure – broadly, the pressure of vapour in equilibrium with the condensed phase – is 59.92 ± 0.21 kPa and 59.91 ± 0.21 kPa.

For the compound `CCCCCC` [hexane], the “vapor or sublimation pressure” value is 37.3 ± 0.14 kPa and 37.25 ± 0.14 kPa.

On to `CCCO` [propan-1-ol], for which the “vapor or sublimation pressure” value is 6.999 ± 0.038 kPa and 7.007 ± 0.038 kPa and 7 ± 0.038 kPa.
